# In PubChem BioAssay (NCI):
# “And” between values parts separate entries of the source, which are not always exact repeats. Identical values can stand only once.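 These data come from cells grown in 96-well plates and exposed to compound for 48 hours at five concentrations. Abbreviation: GI50, concentration required for 50% inhibition of growth. TGI marks complete inhibition of growth.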 The source made the active and inactive calls. Cut-off read from the data, not from the text of the source: active = GI50 below about 0.43 µM; inactive = the rest.
# Columns and labels:
# Experiment in all cases: NCI tumour cell line growth inhibition, 48 h
# RXF-631 renal = tested on: RXF-631 renal
# DMS 273 small cell lung = tested on: DMS 273 small cell lung
# HOP-18 NSCLC = tested on: HOP-18 NSCLC
# SNB-78 CNS = tested on: SNB-78 CNS
# XF 498 CNS = tested on: XF 498 CNS
# MCF7 breast = tested on: MCF7 breast
# BT-549 breast = tested on: BT-549 breast
# MDA-MB-435 = tested on: MDA-MB-435
# T-47D breast = tested on: T-47D breast
Compound,TGI (RXF-631 renal),TGI (DMS 273 small cell lung),TGI (HOP-18 NSCLC),TGI (SNB-78 CNS),TGI (XF 498 CNS),also measured
COc1cc(Cl)c2c3c(c(C(C)=O)oc13)CCC2,> 100 µM,> 100 µM,> 100 µM,> 100 µM,,
Cc1c(NC(=O)C(C)(C)Br)c(=O)oc2c(C)c3occc(=O)c3cc12,> 100 µM,> 100 µM,,,98.6 µM,
CCN(CC)CCCC(C)Nc1c2ccc(Cl)cc2nc2ccc(OC)cc12 (stereo not drawn),3.55 µM,2.04 µM,,11.5 µM,3.12 µM,GI50 (MCF7 breast): 2.33 µM; TGI (MCF7 breast): 8.04 µM and 10.7 µM; GI50 (BT-549 breast): 2.17 µM; TGI (BT-549 breast): 4.84 µM and 6.51 µM; TGI (MDA-MB-435): 3.08 µM and 2.79 µM; GI50 (T-47D breast): 2.59 µM; TGI (T-47D breast): 7.01 µM and 5.68 µM
CC1=C(C(=O)Nc2ccccc2C)C(c2ccc(Cl)c(Cl)c2)C(C(=O)Nc2ccccc2C)=C(C)N1,73.2 µM,41.1 µM,69.4 µM,> 100 µM,56.4 µM,
O=C1OC(CC(=O)c2ccc(Cl)c(Cl)c2)C(Cl)=C1Cl (stereo not drawn),> 100 µM,> 100 µM,> 100 µM,,> 100 µM,
Cc1c[nH]c2c(O)cc3c(c12)[C@H](CCl)CN3C(=O)c1cc2cc(NC(=O)Nc3ccc4[nH]c(C(=O)N5C[C@@H](CCl)c6c5cc(O)c5[nH]cc(C)c65)cc4c3)ccc2[nH]1,,,,1.59 µM and 0.00887 µg/mL and 6.72 µg/mL,,outcome (XF 498 CNS): inactive; TGI (MCF7 breast): 21.9 µM and 0.00887 µg/mL and 8.88 µg/mL; GI50 (DMS 273 small cell lung): 0.000887 ng/mL and 0.888 ng/mL; GI50 (MDA-MB-435): 0.0146 µM; outcome (HOP-18 NSCLC): inactive; GI50 (T-47D breast): 0.00671 µM; TGI (T-47D breast): 0.0911 µM and 0.0461 µM; GI50 (SNB-78 CNS): 0.000887 ng/mL and 2.73 ng/mL
COC(=O)C1C(C(=O)OC)C2(OC)c3ccccc3-c3ccccc3C12 (stereo not drawn),> 100 µM,43 µM,> 100 µM,,,
O=S(=O)(N/N=C/c1ccc(/C=N/NS(=O)(=O)c2ccccc2)cc1)c1ccccc1,> 100 µM,> 100 µM,> 100 µM,> 100 µM,> 100 µM,
CCCCOC(=O)NC(=O)c1cn(CCCOC(=O)CCCCCCCCC(=O)OCCCn2cc(C(=O)NC(=O)OCCCC)c(=O)[nH]c2=O)c(=O)[nH]c1=O,> 100 µM,,> 100 µM,,> 100 µM,
NNC(=O)/C(=C/c1ccc(Cl)c(Cl)c1)NC(=O)c1ccccc1,> 100 µM,,,> 100 µM,> 100 µM,
NC(=O)C(=Cc1ccc(C(O)P(=O)(O)O)cc1)C(N)=O (stereo not drawn),> 100 µM,> 100 µM,> 100 µM,> 100 µM,> 100 µM,
O=[N+]([O-])c1cccc(C2N3CCCCC3[C@@H]3c4[nH]c5ccccc5c4CCN23)c1 (stereo partly drawn),,26 µM,> 100 µM,26.1 µM,27 µM,
CCCCc1c2c(nc3c1CCC/C3=C\c1ccccc1)C(=O)CCC2,,65.6 µM,79 µM,52.5 µM,33.2 µM,
CC(C)CS(=O)(=O)/C(=C(\c1ccc(Br)cc1)S(=O)(=O)CC(C)C)c1ccc(Br)cc1,> 100 µM,> 100 µM,> 100 µM,> 100 µM,> 100 µM,
CCOC(=O)Nc1nc2ccc(Cn3cccc3)cc2[nH]1,> 100 µM,> 100 µM,> 100 µM,> 100 µM,> 85 µM,TGI (MCF7 breast): > 100 µM; TGI (BT-549 breast): > 100 µM; TGI (MDA-MB-435): 0.731 µM; TGI (T-47D breast): > 100 µM
c1ccc2c(c1)CCC/C2=N\OCC1CO1 (stereo not drawn),> 100 µM,> 100 µM,> 100 µM,> 100 µM,> 100 µM,
O=[N+]([O-])c1cccc(/C=N\NS(=O)(=O)c2ccc(Cl)cc2)c1O,> 100 µM,> 100 µM,> 100 µM,> 100 µM,,
CCOC(=O)NC(=O)c1cn(CC(=O)NCC(=O)NCC(=O)NCCCN2CCN(CCCNC(=O)CNC(=O)CNC(=O)Cn3cc(C(=O)NC(=O)OCC)c(=O)[nH]c3=O)CC2)c(=O)[nH]c1=O,> 100 µM,> 100 µM,> 100 µM,> 100 µM,> 100 µM,
O=C1c2ccccc2-c2cccc3ccc(Cc4ccc5ccccc5c4)c1c23,> 100 µM,> 100 µM,,> 100 µM,> 100 µM,
C=CC1(C(=O)O)CCC(C(C)(C)C)CC1 (stereo not drawn),> 100 µM,> 100 µM,> 100 µM,> 100 µM,> 100 µM,
Cc1[nH]c2ccccc2c1C1Cc2ccccc2N1C(=O)/C=C\C(=O)O (stereo not drawn),> 100 µM,> 100 µM,,> 100 µM,47.8 µM,
COc1ccc(NC(=O)C(=O)C(C(=O)c2ccccc2)C2OC(=O)c3ccccc32)c([N+](=O)[O-])c1 (stereo not drawn),,> 100 µM,> 100 µM,> 100 µM,> 100 µM,
